Experimental data as given in ChEMBL document CHEMBL3044988, “QSAR analysis of B-ring-modified diaryl ether derivatives as a InhA inhibitors” (Med Chem Res, 2012).
pIC50: −log10 of the molar value.

Columns and labels:
[1] = Partition coefficient, log P of the compound; assay type: physicochemical; details: octanol/water
[2] = target: T1, Enoyl-[acyl-carrier-protein] reductase [NADH] (Mycobacterium tuberculosis, UniProt P9WGR1)
T1 sequence (P9WGR1 whole entry): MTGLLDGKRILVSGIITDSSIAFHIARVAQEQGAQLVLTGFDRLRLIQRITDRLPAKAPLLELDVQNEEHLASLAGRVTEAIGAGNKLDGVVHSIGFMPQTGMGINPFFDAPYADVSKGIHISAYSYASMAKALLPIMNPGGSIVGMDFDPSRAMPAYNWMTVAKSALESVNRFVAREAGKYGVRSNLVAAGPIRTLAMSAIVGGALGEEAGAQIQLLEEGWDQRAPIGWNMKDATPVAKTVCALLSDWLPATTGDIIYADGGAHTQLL
Description: Inhibition of Mycobacterium tuberculosis InhA

## CCCCCCc1ccc(Oc2ccncc2)c(O)c1
[1]; read-out: logP
  logP: 4.33

## CCCCCCc1ccc(Oc2cccc(NC(=O)c3ccno3)c2)c(O)c1
[1]; read-out: logP
  logP: 4.86

## CCCCCCc1ccc(Oc2ccccn2)c(O)c1
[1]; read-out: logP
  logP: 5.03

## CCCCCCc1ccc(Oc2ccc(NC(=O)C(=O)O)cc2)c(O)c1
[1]; read-out: logP
  logP: 5.59

## CCCCCCc1ccc(Oc2ccccc2[N+](=O)[O-])c(O)c1
[1]
  logP: 4.489

## CCCCCCc1ccc(Oc2cnccn2)c(O)c1
[1]; read-out: logP
  logP: 4.12

## CCCCCCc1ccc(Oc2ncccn2)c(O)c1
[1]; read-out: logP
  logP: 4.13

## CCCCCCc1ccc(Oc2ccc(N)cc2)c(O)c1
[1]; read-out: logP
  logP: 4.42

## CCCCCCc1ccc(Oc2ccccc2N)c(O)c1
[1]; read-out: logP
  logP: 4.42

## CCCCCCc1ccc(Oc2ccc(NC(=O)c3ccno3)cc2)c(O)c1
[1]; read-out: logP
  logP: 4.86

## CCCCCCc1ccc(Oc2cccc(N)c2)c(O)c1
[1]; read-out: logP
  logP: 4.42

## CCCCCCc1ccc(Oc2cccc([N+](=O)[O-])c2)c(O)c1
[1]; read-out: logP
  logP: 4.49

## CCCCCCc1ccc(Oc2ccccc2NC(=O)c2ccno2)c(O)c1
[1]; read-out: logP
  logP: 4.86

## CCCCCCc1ccc(Oc2ccccc2NC(C)=O)c(O)c1
[1]; read-out: logP
  logP: 5

## CCCCCCc1ccc(Oc2cccnc2)c(O)c1
[1]; read-out: logP
  logP: 4.33

## CCCCCCc1ccc(Oc2ccc(NC(C)=O)cc2)c(O)c1
[1]; read-out: logP
  logP: 5

## CCCCCCc1ccc(Oc2ccccc2CN2CCN(C)CC2)c(O)c1
[1]; read-out: logP
  logP: 5.33

## CCCCCCc1ccc(Oc2cccc(NC(C)=O)c2)c(O)c1
[1]; read-out: logP
  logP: 5
[2]
  pIC50: 6.24

## CCCCCCc1ccc(Oc2ccccc2)c(O)c1
[1]; read-out: logP
  logP: 5.64

## CCCCCCc1ccc(Oc2ccc(CN3CCN(C)CC3)cc2)c(O)c1
[1]; read-out: logP
  logP: 5.33

## CCCCCCc1ccc(Oc2ccc([N+](=O)[O-])cc2)c(O)c1
[1]
  logP: 4.489
